Results on 36 molecules are retold here after the Kinase Knowledgebase extract (Sharma et al. 2016).

pIC50: −log10 of the molar value.

For the first test, the target named is CDK2 (UniProt P24941). In words: Enzyme Assay.
Conditions: not given
Take `CNc1nc(C)c(-c2ccnc(Nc3ccc(S(=O)(=O)NCCO)cc3)n2)s1`: the pIC50 is 8.22.

`COCCOC(=O)COc1cccc(Nc2nccc(-c3sc(N)nc3C)n2)c1` had a pIC50 of 6.00.

`CNc1nc(C)c(-c2ccnc(Nc3ccc(OC)c(C)c3)n2)s1` gave a pIC50 of 6.92. The molecule `COCCNS(=O)(=O)c1cccc(Nc2nccc(-c3sc(N)nc3C)n2)c1` had a negative-log IC50 (pIC50) of 6.59. The same measure, in the same setting: next, `CNc1nc(C)c(-c2ccnc(Nc3cc(OC)cc(OC)c3)n2)s1`: 6.49; `CNc1nc(C)c(-c2ccnc(Nc3cccc(S(=O)(=O)NC)c3)n2)s1`: 7.22. The same measure, in the same setting: next, `Cc1nc(N)sc1-c1ccnc(Nc2cccc(S(=O)(=O)N3CCOCC3)c2)n1`: 5.49; `Cc1nc(N(C)c2cccnc2)sc1-c1ccnc(Nc2ccc(N3CCOCC3)cc2)n1`: 5.49; `CNc1nc(C)c(-c2ccnc(Nc3ccc(S(=O)(=O)NCCOC)cc3)n2)s1`: 8.52. Still for that read-out and setting: as for `CCNS(=O)(=O)c1ccc(Nc2nccc(-c3sc(C)nc3C)n2)cc1`, the figure is 7.22. Molecule `Cc1nc(C)c(-c2ccnc(Nc3cccc(N4CCOCC4)c3)n2)s1` gave a pIC50 of 6.49. This pIC50 is 0.73 log units lower than that of the molecule before. The molecule `Cc1nc(NC(C)(C)C)sc1-c1ccnc(Nc2ccc(N3CCOCC3)cc2)n1` had a pIC50 of 6.92. Against the preceding molecule, the pIC50 is 0.43 log units higher. The same measure, in the same setting: next, `Cc1nc(C)c(-c2ccnc(Nc3cccc(S(=O)(=O)NCCO)c3)n2)s1`: 6.49; `Cc1nc(N)sc1-c1ccnc(Nc2cccc(S(=O)(=O)NCCO)c2)n1`: 6.92. In the case of `CNc1nc(C)c(-c2ccnc(Nc3ccc(C)c(Br)c3)n2)s1`, the pIC50 was 6.49. This pIC50 lies 0.43 log units lower than the previous one.

Molecule `Cc1nc(N)sc1-c1ccnc(Nc2ccc(S(=O)(=O)NCc3ccccc3)cc2)n1` had a pIC50 of 7.92. Against the preceding molecule, the pIC50 is 1.43 log units higher. Same read-out and setting: as for `CNc1nc(C)c(-c2ccnc(Nc3ccc(C)c(S(=O)(=O)N4CCOCC4)c3)n2)s1`, the figure is 5.49. In turn, `COc1cc(Nc2nccc(-c3sc(CO)nc3C)n2)ccc1N1CCOCC1` had a pIC50 of 5.60. `CCNc1nc(C)c(-c2ccnc(Nc3cccc(S(=O)(=O)NCC)c3)n2)s1` had a pIC50 of 6.49. The molecule `Cc1nc(C)c(-c2ccnc(Nc3cccc(S(C)(=O)=O)c3)n2)s1` had a pIC50 of 6.49. On to `CNc1nc(C)c(-c2ccnc(Nc3cccc(S(=O)(=O)NCCO)c3)n2)s1`, for which the pIC50 is 6.49. `Cc1nc(N)sc1-c1ccnc(Nc2cccc(CNS(=O)(=O)C(F)(F)F)c2)n1` had a pIC50 of 7.22. Molecule `CCNc1nc(C)c(-c2ccnc(Nc3ccc(N4CCNCC4)cc3)n2)s1` showed a pIC50 of 6.60.

Molecule `CNc1nc(C)c(-c2ccnc(Nc3ccc(S(C)(=O)=O)cc3)n2)s1` had a pIC50 of 8.70.

Another test addresses CDK2 (UniProt P24941). In words: Enzyme Assay.
Conditions: not given
The source holds these as a separate data set.
The molecule `CCNc1nc(C)c(-c2ccnc(Nc3ccc(N4CCN(Cc5ccccc5)CC4)cc3)n2)s1` had a pIC50 of 5.49. On the same count and under the same terms, next, `CCNc1nc(C)c(-c2ccnc(Nc3ccc(S(=O)(=O)NCCOC)cc3)n2)s1`: 7.92.

`CCOC(=O)Cc1cccc(NS(=O)(=O)c2ccc(Nc3nccc(-c4sc(NC)nc4C)n3)cc2)c1` gave a pIC50 of 5.49. This pIC50 lies 2.43 log units lower than the previous one. The same measure, in the same setting: next, `CNc1nc(C)c(-c2ccnc(Nc3cccc(S(C)(=O)=O)c3)n2)s1`: 8.22; `CCNc1nc(C)c(-c2ccnc(Nc3cccc(CC(=O)OCCOC)c3)n2)s1`: 5.49.

`CCNc1nc(C)c(-c2ccnc(Nc3ccc(S(N)(=O)=O)cc3)n2)s1` gave a pIC50 of 8.22. Still for that read-out and setting: next, `CNc1nc(C)c(-c2ccnc(Nc3cccc(S(=O)(=O)NC(C)=O)c3)n2)s1`: 5.49. As for `CCNc1nc(C)c(-c2ccnc(Nc3ccc(N4CCNCC4)cc3)n2)s1`, the pIC50 was 7.30.

Molecule `CCNc1nc(C)c(-c2ccnc(Nc3ccc(S(=O)(=O)NCc4ccccc4)cc3)n2)s1` had a pIC50 of 5.49. As to `CCNc1nc(C)c(-c2ccnc(Nc3ccc(CNC(C)=O)cc3)n2)s1`, the negative logarithm of the IC50 (pIC50) is 6.92.

The same test, now with this note: concentration not given here.
The molecule `Cc1nc(CS(=O)(=O)c2cccs2)sc1-c1ccnc(Nc2ccc(N3CCOCC3)cc2)n1` gave an inhibition of 91%. Same read-out and setting: next, `CCNc1nc(C)c(-c2ccnc(Nc3ccc(N4CCNCC4)cc3)n2)s1`: 99%.

The target of the next test is ROCK2 (rat) (UniProt Q62868). As to the kind of experiment: Inhibition of ROCK2 Kinase Activity. To be noted: concentration not given here.
Sequence of ROCK2 (rat) (Q62868 whole entry, looked up): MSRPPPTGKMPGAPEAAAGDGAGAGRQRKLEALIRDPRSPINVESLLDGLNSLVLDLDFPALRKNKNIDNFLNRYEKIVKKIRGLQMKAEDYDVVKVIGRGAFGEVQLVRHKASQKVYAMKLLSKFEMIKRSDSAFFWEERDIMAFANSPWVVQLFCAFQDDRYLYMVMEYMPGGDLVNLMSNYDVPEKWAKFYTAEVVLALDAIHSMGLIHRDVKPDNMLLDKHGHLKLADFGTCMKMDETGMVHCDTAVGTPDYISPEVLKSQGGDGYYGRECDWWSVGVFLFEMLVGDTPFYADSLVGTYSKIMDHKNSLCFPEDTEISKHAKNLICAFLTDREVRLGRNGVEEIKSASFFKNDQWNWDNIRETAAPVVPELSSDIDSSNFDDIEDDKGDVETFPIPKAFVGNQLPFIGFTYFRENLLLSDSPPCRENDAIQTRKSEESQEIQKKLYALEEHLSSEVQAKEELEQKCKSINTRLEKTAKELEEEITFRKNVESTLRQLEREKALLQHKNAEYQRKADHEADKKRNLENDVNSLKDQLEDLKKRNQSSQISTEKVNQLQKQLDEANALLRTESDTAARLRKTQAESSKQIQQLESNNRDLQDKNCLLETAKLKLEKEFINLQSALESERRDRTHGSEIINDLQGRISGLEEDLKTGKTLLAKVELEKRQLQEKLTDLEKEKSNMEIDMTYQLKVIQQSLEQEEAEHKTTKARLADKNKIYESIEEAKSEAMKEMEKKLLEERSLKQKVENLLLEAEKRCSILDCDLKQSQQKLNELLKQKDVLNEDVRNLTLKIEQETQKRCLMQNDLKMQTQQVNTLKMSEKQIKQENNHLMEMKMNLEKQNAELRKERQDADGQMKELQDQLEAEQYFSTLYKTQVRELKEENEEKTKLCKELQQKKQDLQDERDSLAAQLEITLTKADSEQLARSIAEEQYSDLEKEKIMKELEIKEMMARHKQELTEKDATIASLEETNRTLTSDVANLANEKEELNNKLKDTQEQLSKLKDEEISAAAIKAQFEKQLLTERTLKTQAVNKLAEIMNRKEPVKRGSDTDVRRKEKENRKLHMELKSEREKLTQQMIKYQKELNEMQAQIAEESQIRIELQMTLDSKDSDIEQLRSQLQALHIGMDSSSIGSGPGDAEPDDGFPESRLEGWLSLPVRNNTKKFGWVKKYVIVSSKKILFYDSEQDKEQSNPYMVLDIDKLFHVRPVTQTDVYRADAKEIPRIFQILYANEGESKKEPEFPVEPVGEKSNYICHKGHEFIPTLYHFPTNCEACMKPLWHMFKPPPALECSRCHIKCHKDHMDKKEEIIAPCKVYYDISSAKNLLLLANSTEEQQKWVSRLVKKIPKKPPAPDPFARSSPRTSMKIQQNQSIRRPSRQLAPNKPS
Molecule `Cc1nc(CS(=O)(=O)c2cccs2)sc1-c1ccnc(Nc2ccc(N3CCOCC3)cc2)n1` displayed an inhibition of 86%. Same read-out and setting: as for `CCNc1nc(C)c(-c2ccnc(Nc3ccc(N4CCNCC4)cc3)n2)s1`, the figure is 95%.

The next test deals with MAPK14 (human) (UniProt Q16539). In words: Inhibition of MAPK14 Kinase Activity.
Sequence of MAPK14 (human) (Q16539 whole entry, looked up): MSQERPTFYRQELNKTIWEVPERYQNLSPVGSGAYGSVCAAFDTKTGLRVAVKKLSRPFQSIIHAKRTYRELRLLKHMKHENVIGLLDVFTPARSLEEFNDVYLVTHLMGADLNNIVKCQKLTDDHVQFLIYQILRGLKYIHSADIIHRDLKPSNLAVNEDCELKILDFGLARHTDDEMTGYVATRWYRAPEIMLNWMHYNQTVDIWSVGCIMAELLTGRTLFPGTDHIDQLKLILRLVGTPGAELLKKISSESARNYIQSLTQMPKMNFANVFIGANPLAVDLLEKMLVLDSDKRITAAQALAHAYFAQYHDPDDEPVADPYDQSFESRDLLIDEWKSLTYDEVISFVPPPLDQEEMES
Conditions: not given
With `COCCNS(=O)(=O)c1cccc(Nc2nccc(-c3sc(N)nc3C)n2)c1`, the pIC50 was under 5.00. Still for that read-out and setting: as for `CNc1nc(C)c(-c2ccnc(Nc3ccc(S(N)(=O)=O)cc3)n2)s1`, the figure is under 5.00; as for `CNc1nc(C)c(-c2ccnc(Nc3cccc(S(C)(=O)=O)c3)n2)s1`, under 5.00. In turn, `CNc1nc(C)c(-c2ccnc(Nc3ccc(C)c(S(=O)(=O)N4CCOCC4)c3)n2)s1` had a pIC50 of under 5.00.

`Cc1ccc(Nc2nccc(-c3sc(N)nc3C)n2)cc1S(=O)(=O)N1CCOCC1` gave a pIC50 of under 5.00.

Staying with this test, now noted: concentration not given here.
Turning to `Cc1nc(CS(=O)(=O)c2cccs2)sc1-c1ccnc(Nc2ccc(N3CCOCC3)cc2)n1`, the inhibition amounted to 67%.

For `CCNc1nc(C)c(-c2ccnc(Nc3ccc(N4CCNCC4)cc3)n2)s1`, the inhibition was 61%.
